Assay results from PMC6058720, “Dual-ligand modified liposomes provide effective local targeted delivery of lung-cancer drug by antibody and tumor lineage-homing cell-penetrating peptide” (Drug Delivery, 2018).
Values after ≈ are worked out from the molar mass of the structure shown.

Tests used:
[1] = parameters: method as in Chen et al., [2012a]; Reno et al., [2015]; Li et al., [2016]; details: ref Chen et al., [2012a]; Reno et al., [2015]; Li et al., [2016]; cited from earlier work
[2] = In vitro drug release study (dialysis, PBS pH 7.4); format: physicochemical; details: PBS pH 7.4, 37 °C, over 96 h, dialysis under sink conditions
Description: Briefly, 1 mL of dl-TPL-lip, CA IX-TPL-lip, CPP33-TPL-lip, TPL-lip, and free TPL solution (0.05 mg/mL) was placed into dialysis tubes with a molecular cut-off of MWCO 12–14 kDa and dialyzed in 10 mL of PBS (pH 7.4) at 37 °C. At predetermined time intervals, 100 μL of release medium was taken out and replaced with equal volume of fresh medium. The concentration of TPL in release medium was then determined by UPLC.

[3] = test system: orthotopic lung tumor (A549-Red-FLuc cells); assay: Anti-cancer effect in orthotopic mice model of lung cancer (bioluminescence imaging); format: in vivo, BALB/c nu/nu mice; details: pulmonary delivery, 0.3 mg/kg, four doses; control increased ∼6-fold; n = 5
Description: An orthotopic lung tumor-bearing mice model was established as previously reported. Briefly, the male BALB/c nu/nu mice (7–8 weeks) were anesthetized with 5% of chloral hydrate and 100 μL of A549-Red-FLuc cells (2 × 10^6 cells) solution in Matrigel (1:1). Experimental solutions were injected percutaneously into the right lateral thorax of each mouse using a 1 mL syringe with 29-gauge needle. On day seven after tumor cell inoculation, bioluminescence was measured using the IVIS Lumina XR system (Caliper, Hopking, MA) to check the successful establishment of lung cancer. D-luciferin substrate (i.p., 150 mg/kg in 0.9% saline solution) was injected 15 min before bioluminescence imaging. On day 19 after tumor cell inoculation, the mice were sacrificed and lungs were immediately resected.
On day seven following tumor cells inoculation, the orthothopic lung tumor-bearing mice (n = 30) were grouped into six treatment groups based on equivalent signal intensity of the tumor bioluminescence: Free TPL, TPL-lip, CA IX-TPL-lip, CPP33-TPL-lip, dl-TPL-lip, and control group with saline. […] Tumor growth was monitored weekly by bioluminescence imaging as before, during, and after the TPL treatment. Body weight of the mice was recorded weekly during the course of the study. […]
The TPL pharmacokinetic parameters in mice after endotracheal administration were calculated and summarized by DAS 2.1.1. […]

[4] = Pharmacokinetics study after pulmonary (endotracheal) administration to rats; parameters: species or system Sprague Dawley rats; details: rat, in vivo, 0.5 mg/kg
Description: Sprague–Dawley (SD) rats were divided randomly into five groups (n = four per group). Rats were fasted for 12 h before the experiment, but allowed water ad libitum. Free TPL, TPL-lip, CPP33-TPL-lip, CA IX-TPL-lip, and dl-TPL-lip were administered directly via pulmonary delivery using a Microsprayer Aerosolizer Pulmonary Aerosol Kit for Mouse Model PAK-MSA (Penn-Century, Inc. Wyndmoor, PA19038, USA) at a dose of 0.5 mg/kg. Blood samples (0.4 mL) were obtained before dosing and at designated time points (0.083, 0.5, 1, 2, 4, 6, 8, 12 h). The samples were collected into heparinized tube from the suborbital veins and were centrifuged for 10 min at 4,000 rpm. The plasma was analyzed by Agilent 1290 Ultra High Performance Liquid Chromatograph with Agilent 6460 Triple Quadrupole Mass Spectrometer system (UHPLC-QQQ MS/MS, Santa Clara, USA) (Xue et al., [2012]; Zhuang et al., [2013]).
The TPL pharmacokinetic parameters in […] after endotracheal administration were calculated and summarized by DAS 2.1.1. Statistical analyses for anti-cancer effect study were evaluated by two-way ANOVA with Bonferroni posttests using GraphPad Prism 6 (GraphPad Software, Inc, La Jolla, USA). […]
44 Analytical method for pharmacokinetics study
45 Hydrocortisone was added (50 μL, 200 ng/mL) as an internal standard (IS) to 0.2
46 mL of plasma. The samples were mixed, and extracted with ethyl acetate (750 μL)
47 followed by vortexing for 4min and centrifuging for 10min at 8000 rpm. The upper
48 organic phase was carefully transferred and e vaporated to dryness in vacuum. The
49 residues were dissolved in 100μL methanol and centrifuged at 4000rpm for 10 min,
50 then the supernatant was collected and injected into the Agilent 1290 Ultra High
51 Performance Liquid Chromatograph with Agilent 6460 Triple Quadrupole Mass
52 Spectrometer system (UHPLC-QQQ MS/MS).
53 Chromatography conditions: Waters Acquity BEH C18 (2.1×50 mm); Mobile phase
54 0.1% formic acid in water: 0.1% formic acid in acetonitrile =80:20 v/v; Flow rate 0.35
55 mL/min; Running time 10 min.
56 Mass spectrometer conditions: Ion Source Agilent Jet Stream electro spray
57 ionization (AJS ESI); Positive mode; Gas Temperature 300 °C; Gas flow rate 8 L/min;
58 Nebulizer 40 psi; SheathGasHeater 350°C; SheathGasFlow 8 L/min; Capillary 3500
60 Firstly, optimization of mass spectrometry was initiated by automatic tuning of the
61 instrument (Figure S1). Method validation was conducted before the sample analysis.
62 The specificity of the established method was assessed by comparing the
63 chromatograms of blank plasma, blank plasma with TPL, blank plasma with IS, and
64 plasma after endotracheal administration (Figure S2). The calibration curve in rat
65 plasma was linear over the ranges 10-2500 ng/mL in rat plasma (y=0.375035x +
67 accuracy and precision both intra-day and inter-day were less than 10%. The method
68 was sufficiently accurate and consistent for proceeding for the biological analysis of
69 TPL (Table S1). Therefore, the established method was applied to the analysis of rat

[5] = Sprague-Dawley, inhaled or intranasal, endotracheal administration, plasma TPL, n = 4

CC(C)[C@]12O[C@H]1[C@@H]1O[C@]13[C@]1(O[C@H]1C[C@H]1C4=C(CC[C@@]13C)C(=O)OC4)[C@@H]2O [Free TPL, Triptolide]
Solubility in water [1]: 17 µg/mL (≈ 47.2 µM) | TPL release profile [2]: rapid release profile | Increase of tumors (bioluminescence) on day 31 [3]: ~3 fold | AUC(0-inf) [4, 5]: 225 ± 63.8 ng·h/mL | AUC(0-t) [4, 5]: 186 ± 36.5 ng·h/mL | Cmax [4, 5]: 188 ± 42.7 ng/mL | Tmax [4, 5]: 4.98 min | Cmax of TPL in blood compared to liposomal TPL [4]: three-fold higher | t1/2 [4]: 2.98 ± 0.54 H
